# Assay results as given in PMC11306024, “Novel metabolite madeirone and neomarinone extracted from Streptomyces aculeoletus as marine antibiofilm and antifouling agents” (Frontiers in Chemistry, 2024).
# Read-outs that look alike come from different tables or passages of the source.
# Assays:
# [1] = system: Alga Scenedesmus quadricauda; conditions: cited from earlier work
# Oral rat/rabit = system: Oral rat/rabit; parameters: method as in Tišler and Zagorc-končan, 2003; conditions: ref Tišler and Zagorc-končan, 2003; cited from earlier work
# Oral rat = conditions: from reported data; ref Tišler and Zagorc-končan, 2003; cited from earlier work
# Fish Orcorhynchus mykiss = conditions: ref Tišler and Zagorc-končan, 2003; cited from earlier work
# Daphnia magna [2] = conditions: ref Tišler and Zagorc-končan, 2003; cited from earlier work
# Daphnia magna [3] = conditions: cited from earlier work
# M. luteus [4] = experiment: Antibacterial activity (growth inhibition, OD600); type: cell-based, Micrococcus luteus DSM 20030; conditions: 0.16 µg/mL, 48 h, positive control
# Experimental: (§1) To assess antimicrofouling activity, we selected five marine bacterial species as models: Marinobacter hydrocarbonoclasticus DSM 8798 (ATCC 49840), C. marina DSM 4741, Phaeobacter inhibens DSM 17,395, Pseusooceanicola batsensis DSM 15,984, and Micrococcus luteus DSM 20030 (ATCC 4698) ([Michael et al., 2016]). These strains, sourced from DSMZ (Leibniz Institute DSMZ—German Collection of Microorganisms and Cell Cultures), were cultured in liquid marine broth (Carl Roth GmbH, Karlsruhe, Germany) with agitation at 180 rpm or on agar-supplemented marine broth. Incubation temperatures were set at 28°C for M. hydrocarbonoclasticus and Cobetia marina, 30°C for P. inhibens and P. batsensis, while M. luteus was maintained at 37°C in Brain Heart Infusion broth (BHI, Becton Dickinson, GmbH, Heidelberg, Germany) under similar agitation conditions.
# (§2) The antibacterial efficacy of compounds (1) and (2) was assessed in 96-well polystyrene flat-bottom microplates (Nunclon Delta Surface, Thermo Scientific, Roskilde, Denmark) following established procedures ([Bauermeister et al., 2019]). In the initial screening, bacterial overnight cultures were diluted to an optical density (OD600nm) of 0.2 and incubated statically at appropriate temperatures. The cultures were treated with the following final concentrations per well: 31.25, 15.60, 7.81, 3.91, 1.95, and 0.98 μg/mL (2-fold serial dilutions) of the compounds, solubilized in DMSO, or left untreated. After 24 h (M. hydrocarbonoclasticus, C. marina) or 48 h (P. batsensis, P. inhibens, M. luteus) incubation, optical density at 600 nm (OD600) was measured using a Molecular Devices Spectra Max 190. Growth inhibition percentages were calculated relatively to untreated bacterial species, using DMSO as a negative control. CuSO4 (0.16 μg/mL), a recognized antifouling agent, was used as positive control. All assays were conducted in triplicate, and the results represent the mean and standard error of the mean (SEM). Statistical analysis was carried out using GraphPad Prism 8.0.2 (San Diego, CA, United States), employing one-way ANOVA followed by Dunnett’s multiple comparisons test against the negative control.
# M. hydrocarbonoclasticus [5] = experiment: Antibacterial activity (growth inhibition, OD600); type: cell-based, Marinobacter hydrocarbonoclasticus DSM 8798; conditions: 0.16 µg/mL, 24 h, positive control
# Experimental: as §1, §2
# M. luteus [6] = experiment: Antibiofilm activity (inhibition of biofilm formation); type: cell-based, Micrococcus luteus DSM 20030; conditions: 0.16 µg/mL, 48 h, positive control
# Experimental: as §1
# (§3) The antibiofilm potential of compounds (1) and (2) against the five marine bacterial species was investigated in 96-well polystyrene flat-bottom microplates (Nunclon Delta Surface, Thermo Scientific, Roskilde, Denmark), as described previously ([Bauermeister et al., 2019]; [Pereira et al., 2020]). In the initial screening, bacterial overnight cultures were diluted to an OD600 of 0.2 and incubated statically at appropriate temperatures. The cultures were tested at 31.25, 15.60, 7.81, 3.91, 1.95, 0.98 μg/mL concentrations (2-fold serial dilutions) of compounds (1) and (2), solubilized in DMSO, or left untreated. After 24 h (M. hydrocarbonoclasticus, C. marina) or 48 h (P. batsensis, P. inhibens, M. luteus) incubation, OD600 was measured. The planktonic cells and media were discarded, and the wells were washed twice with deionized water. Biofilms were fixed, stained, and quantified by measuring the OD600 after solubilization with acetic acid. Biofilm inhibition percentages were calculated relative to untreated bacterial species, using DMSO as a negative control and CuSO4 (0.16 μg/mL), as a positive control. All assays were performed in triplicate, and the results represent the mean and standard error of the mean (SEM). Statistical analysis was conducted using GraphPad Prism 8.0.2, employing one-way ANOVA followed by Dunnett’s multiple comparisons test against the negative control.
# P. inhibens [7] = experiment: as above; type: cell-based, Phaeobacter inhibens DSM 17395; conditions: 0.16 µg/mL, 48 h, positive control
# Experimental: as §1, §3
# P. batsensis [8] = experiment: Antibacterial activity (growth inhibition, OD600); type: cell-based, Pseudo-oceanicola batsensis DSM 15984; conditions: 0.16 µg/mL, 48 h, positive control
# Experimental: as §1, §2
# P. inhibens [9] = experiment: Antibacterial activity (growth inhibition, OD600); type: cell-based, Phaeobacter inhibens DSM 17395; conditions: 0.16 µg/mL, 48 h, positive control
# Experimental: as §1, §2
# P. batsensis [10] = experiment: Antibiofilm activity (inhibition of biofilm formation); type: cell-based, Pseudo-oceanicola batsensis DSM 15984; conditions: 0.16 µg/mL, 48 h, positive control
# Experimental: as §1, §3
# M. hydrocarbonoclasticus [11] = experiment: as above; type: cell-based, Marinobacter hydrocarbonoclasticus DSM 8798; conditions: 0.16 µg/mL, 24 h, positive control
# Experimental: as §1, §3
# C. marina [12] = experiment: as above; type: cell-based, Cobetia marina DSM 4741; conditions: 0.16 µg/mL, 24 h, positive control
# Experimental: as §1, §3
# C. marina [13] = experiment: Antibacterial activity (growth inhibition, OD600); type: cell-based, Cobetia marina DSM 4741; conditions: 0.16 µg/mL, 24 h, positive control
# Experimental: as §1, §2
# M. edulis = system: M. edulis; parameters: method as in Davies et al., 1997; conditions: against M. edulis; ref Davies et al., 1997; cited from earlier work
# Aliivibrio fischeri = experiment: Inhibition of bioluminescence (ISO 11348-3 micro adaptation); type: cell-based; conditions: 100 µg/mL
# Experimental: The in vivo evaluation of compounds (1) and (2) for acute toxicity was performed towards marine bacterium Aliivibrio fischeri, and planktonic crustacean Daphnia magna. The chronic ecotoxicity tests were evaluated using algae Pseudokirchneriella subcapitata and Phaeodactylum tricornutum.
# The inhibition of bioluminescence of the marine bacterium A. fischeri, were studied following a micro adaptation of the standard procedure ISO 11348-3 (“Water Quality-Determination of the inhibitory effect of water samples on the light emission of Vibrio fischeri - Luminescent bacteria test–using freeze-dried bacteria method”). Briefly, frozen lyophilized bacterial cells (Abraxis, Warminster, PA, United States) were reconstituted in Reconstitution Solution, supplied by the manufacturer of the Abratox kit (Abraxis). Madeirone (1) and neomarinone (2) were dissolved in DMSO and tested at the concentrations of 100, 50, 25, 12.5, 6.25, 3.13, and 1.56 μg/mL. The emitted luminescence was measured using a luminometer at time 0 min and at different exposure times (5, 15 and 30 min) and the percentage of inhibition of bioluminescence was determined. Each experiment was performed in duplicate and the results of three independent experiments with <10% SD are presented. Phenol was used as a positive control.
molecule,measurement,setting,value
"[As] [compound 9, arsenic]",Alga Scenedesmus quadricauda 21 days NOEC,"[1]; footnote d as printed, ref Tišler and Zagorc-končan, 2003",34.5 mg/L
same,Oral rat/rabit LD50,Oral rat/rabit,12 mg/kg
same,ATE category,Oral rat,"2 (category 2, 5 < ATE ≤50 mg/kg, also classified as “Fatal if swallowed”)"
same,Fish Orcorhynchus mykiss 96 h LC50,Fish Orcorhynchus mykiss,15.3 µg/mL
same,Daphnia magna 48 h LC50,Daphnia magna [2],2.5 µg/mL
same,Daphnia magna 21 days NOEC,"Daphnia magna [3]; ref Tišler and Zagorc-končan, 2003",1.85 mg/L
"O=S(=O)([O-])[O-].[Cu+2] [CuSO4, reference compound]",Growth inhibition (%) M. luteus,M. luteus [4],No inhibition and N.I.
same,Growth inhibition (%) M. hydrocarbonoclasticus,M. hydrocarbonoclasticus [5],35.8 ± 0.8 %
same,Biofilm inhibition (%) M. luteus,M. luteus [6],no observable inhibition and N.I.
same,Biofilm inhibition (%) P. inhibens,P. inhibens [7],12.9 ± 6.4%
same,Growth inhibition (%) P. batsensis,P. batsensis [8],44.8 ± 6.3 %
same,Growth inhibition (%) P. inhibens,P. inhibens [9],66.2 ± 5.6 %
same,Biofilm inhibition (%) P. batsensis,P. batsensis [10],41.4 ± 0.9%
same,Biofilm inhibition (%) M. hydrocarbonoclasticus,M. hydrocarbonoclasticus [11],no observable inhibition and N.I.
same,Biofilm inhibition (%) C. marina,C. marina [12],no observable inhibition and N.I.
same,Growth inhibition (%) C. marina,C. marina [13],No inhibition and N.I.
"[Cu] [compound 8, copper]",Alga Scenedesmus quadricauda 21 days NOEC,[1],0.18 mg/L
same,Oral rat/rabit LD50,Oral rat/rabit,140 mg/kg
same,ATE category,Oral rat,"3 (category 3, 50 < ATE ≤300 mg/kg, labeled as (“Toxic if swallowed”))"
same,Fish Orcorhynchus mykiss 96 h LC50,Fish Orcorhynchus mykiss,0.48 µg/mL
same,Daphnia magna 48 h LC50,Daphnia magna [2],0.030 µg/mL
same,Daphnia magna 21 days NOEC,Daphnia magna [3]; in vivo,0.015 mg/L
ivermectin,EC50,M. edulis,0.4 µg/mL
"Oc1ccccc1 [Phenol, reference compound]",Inhibition (%) A. fischeri (bioluminescence),Aliivibrio fischeri,19.8%
